From the NIST ThermoML archive (doi:10.1021/je049777o)

Assay: xn = mol fraction of the nth substance listed
Conditions: 101.3 kPa, Liquid

COC(=O)OC [dimethyl carbonate] + CCCCCCC
Conditions | mass density [kg/m3] | viscosity [mPa·s]
293.15 K, x1 = 0.1099 | 709.87 | 0.3932
293.15 K, x1 = 0.2176 | 735.33 | 0.3924
293.15 K, x1 = 0.3229 | 763.59 | 0.4001
293.15 K, x1 = 0.4259 | 794.8 | 0.4139
293.15 K, x1 = 0.5266 | 829.38 | 0.4321
293.15 K, x1 = 0.6252 | 867.51 | 0.4541
293.15 K, x1 = 0.7218 | 910.1 | 0.4774
293.15 K, x1 = 0.8165 | 957.71 | 0.5078
293.15 K, x1 = 0.9092 | 1011.41 | 0.5511
293.15 K, x1 = 1 | 1069.54 | 0.6173
298.15 K, x1 = 0.1099 | 705.39 | 0.3737
298.15 K, x1 = 0.2176 | 730.61 | 0.3723
298.15 K, x1 = 0.3229 | 758.68 | 0.3796
298.15 K, x1 = 0.4259 | 789.63 | 0.3911
298.15 K, x1 = 0.5266 | 823.98 | 0.4095
298.15 K, x1 = 0.6252 | 861.86 | 0.4261
298.15 K, x1 = 0.7218 | 904.23 | 0.45
298.15 K, x1 = 0.8165 | 951.63 | 0.4779
298.15 K, x1 = 0.9092 | 1005.04 | 0.5169
298.15 K, x1 = 1 | 1062.95 | 0.5734
303.15 K, x1 = 0.1099 | 700.93 | 0.3559
303.15 K, x1 = 0.2176 | 725.89 | 0.353
303.15 K, x1 = 0.3229 | 753.73 | 0.3585
303.15 K, x1 = 0.4259 | 784.46 | 0.3719
303.15 K, x1 = 0.5266 | 818.56 | 0.3855
303.15 K, x1 = 0.6252 | 856.24 | 0.4015
303.15 K, x1 = 0.7218 | 898.37 | 0.423
303.15 K, x1 = 0.8165 | 945.53 | 0.4491
303.15 K, x1 = 0.9092 | 998.7 | 0.4793
303.15 K, x1 = 1 | 1056.35 | 0.5403
313.15 K, x1 = 0.1099 | 691.78 | 0.32
313.15 K, x1 = 0.2176 | 716.32 | 0.3195
313.15 K, x1 = 0.3229 | 743.68 | 0.3248
313.15 K, x1 = 0.4259 | 773.95 | 0.3316
313.15 K, x1 = 0.5266 | 807.58 | 0.3435
313.15 K, x1 = 0.6252 | 844.82 | 0.3588
313.15 K, x1 = 0.7218 | 886.49 | 0.3777
313.15 K, x1 = 0.8165 | 933.18 | 0.402
313.15 K, x1 = 0.9092 | 985.81 | 0.4335
313.15 K, x1 = 1 | 1043.01 | 0.4807
323.15 K, x1 = 0.1099 | 682.57 | 0.2905
323.15 K, x1 = 0.2176 | 706.62 | 0.292
323.15 K, x1 = 0.3229 | 733.52 | 0.2932
323.15 K, x1 = 0.4259 | 763.34 | 0.2997
323.15 K, x1 = 0.5266 | 796.47 | 0.3118
323.15 K, x1 = 0.6252 | 833.28 | 0.3251
323.15 K, x1 = 0.7218 | 874.5 | 0.3403
323.15 K, x1 = 0.8165 | 920.24 | 0.3615
323.15 K, x1 = 0.9092 | 972.84 | 0.3906
323.15 K, x1 = 1 | 1029.59 | 0.427
333.15 K, x1 = 0.1099 | 673.2 | 0.2666
333.15 K, x1 = 0.2176 | 696.76 | 0.2648
333.15 K, x1 = 0.3229 | 723.19 | 0.267
333.15 K, x1 = 0.4259 | 752.53 | 0.273
333.15 K, x1 = 0.5266 | 785.19 | 0.2828
333.15 K, x1 = 0.6252 | 821.51 | 0.2946
333.15 K, x1 = 0.7218 | 862.31 | 0.3099
333.15 K, x1 = 0.8165 | 908.07 | 0.3291
333.15 K, x1 = 0.9092 | 959.74 | 0.3543
333.15 K, x1 = 1 | 1016 | 0.3893
343.15 K, x1 = 0.1099 | 663.69 | 0.2437
343.15 K, x1 = 0.2176 | 686.83 | 0.2429
343.15 K, x1 = 0.3229 | 712.79 | 0.2462
343.15 K, x1 = 0.4259 | 741.63 | 0.2512
343.15 K, x1 = 0.5266 | 773.79 | 0.2603
343.15 K, x1 = 0.6252 | 809.67 | 0.2725
343.15 K, x1 = 0.7218 | 850.05 | 0.2851
343.15 K, x1 = 0.8165 | 894.95 | 0.3015
343.15 K, x1 = 0.9092 | 946.54 | 0.3252
343.15 K, x1 = 1 | 1002.32 | 0.3527
